# Test: Human HepG2 cell viability assay in 384 well format
# Format: toxicity, cell-based
# Parameters: dose 125 nL, time 70.5 hour; concentration not given beside the values
# Details: HepG2 cells, read-out: Inhibition
row,SMILES,cytotoxicity at 70.5 h [%]
1,Cc1ccc(N2CCC3(CCCN(C(=O)c4cnccn4)C3)C2)nn1 (stereo unspecified),1.5
2,CCc1cnc(CCNS(C)(=O)=O)s1,-6.67
3,Cc1ccc2c(c1)C1(CCN(S(C)(=O)=O)CC1)CN2C(=O)N(C)C,4.29
4,NC(=O)C1CCN(C(=O)NC(Cc2ccccc2)C(F)(F)F)CC1 (stereo unspecified),3.75
5,O=C(c1ccc2c(c1)CCC2)N1CCCCC1C1OCCO1 (stereo unspecified),-7.93
6,CC(C)Oc1cccc(C(=O)C2CCCN(C(=O)c3ccnn3C)C2)c1 (stereo unspecified),19.8
7,CCOCCN1CCCC1CS(N)(=O)=O (stereo unspecified),-10.1
8,Cc1cc(N[C@@H](CO)c2ccccc2)n2nc(C)c(C)c2n1,-2.95
9,O=S(=O)(NCC(O)c1ccc2c(c1)CCO2)c1ccccc1F (stereo unspecified),-13.3
10,O=C(NCCN1CCOCC1)c1cc(-c2ccc3c(c2)CCO3)n[nH]1,2
11,Cc1cc(Cl)c2c(c1)C1(NC(=O)c3cccnc3N1)C(=O)N2 (stereo unspecified),-1.82
12,O=c1ccc2c(n1Cc1ccncc1)CCN(C1CCOC1)CC2 (stereo unspecified),0.608
13,CC1CN(CC(=O)NCCc2ccccc2)CCN1c1nccs1 (stereo unspecified),-5.41
14,Cc1nc(O)cc(CN2CCC=C(CN(C)C(=O)c3ccco3)C2)n1,-14.2
15,Cn1c(CN2CCC(O)CC2)nnc1C1CCCN(C(=O)C2CNC2)C1 (stereo unspecified),-5.47
16,Cc1noc(C)c1C(=O)N1CCC2(CCc3ccccc3C(=O)N2)C1 (stereo unspecified),-4.04
17,CC[C@H](C)Nc1nccc(-c2cnc3sccn3c2=O)n1,-4.72
18,COCCC1(CO)CCCN(Cc2cc(C(F)(F)F)ccc2F)C1 (stereo unspecified),-1.42
19,Cc1nn(C)c(C)c1C1CCCN1C(=O)CCc1ccco1 (stereo unspecified),-1.9

row,SMILES,cytotoxicity at 70.5 h [%]
1,O=C(C1CCCC1)N1CCO[C@@H]2CNC[C@@H]21,12.2
2,Cc1cc2c(=O)n(CCSc3cnn[nH]3)cnc2s1,-12.3
3,Cc1ccnc(OCC(=O)N2CCC(C(N)=O)CC2)n1,-4.44
4,CCS(=O)(=O)N1C[C@@H](c2cc(O)nc(C)n2)[C@H](c2ccccc2F)C1,13.7
5,CCn1cc(CNC(C)c2noc(-c3ccc(Cl)cc3)n2)cn1 (stereo unspecified),-3.37
6,CC(Cn1cccn1)NC(=O)NCc1ccoc1 (stereo unspecified),-10.1
7,CCN(CC)C(=O)c1cc(-c2cccc(Cl)c2)no1,-5.28
8,Cc1cnc2n(c1=O)C(CC(=O)NCc1ccccc1Cl)CS2 (stereo unspecified),35
9,CC(=O)c1cc(C(=O)NC2(c3ccc(Br)cc3)CC2)n(C)c1,-3.42
10,C[S+]([O-])c1cccc(NC(=O)N[C@H](CCO)c2ccccc2)c1 (stereo partly specified),-2.3
11,COC(=O)C(C)CN(C)S(=O)(=O)c1c(Br)cc2[nH]c(=O)oc2c1Cl (stereo unspecified),-4.98
12,O=C(NCc1ccco1)[C@@H]1CCO[C@@H]2CCN(c3ccncn3)C[C@H]21,-2.41
13,CS(=O)(=O)CCC(=O)NC1CC(c2ccccc2Cl)C1 (stereo unspecified),2.56
14,Cc1noc(C)c1CN1C[C@@H]2COC[C@@H](C(=O)N3CCCCO3)[C@@H]2C1,-8.21
15,COCCC(=O)N1CCCC1c1nc(O)cc(C(C)C)n1 (stereo unspecified),-0.774
16,O=C(c1nnn(-c2ccc(F)cc2)n1)N(CCO)Cc1ccccc1,-1.48
17,Cc1c(CN2CCCCC2)c(O)n(CCCO)c(=O)c1C#N,-4.27
18,CC(C)c1cc(O)nc(C2CCCN2C(=O)C2CC2)n1 (stereo unspecified),-1.44
19,CCN1CCN(Cc2nc(C)no2)CC1,12.7

row,SMILES,cytotoxicity at 70.5 h [%]
1,Cn1ccnc1C(O)c1ccccc1N1CCN(Cc2cccs2)CC1 (stereo unspecified),-0.023
2,Cc1cc(C)c2c(N3CCN(C(=O)N4CCOCC4)CC3)ncnc2n1,30.5
3,O=C(O)CCCC(=O)N1CCC(c2noc3cc(F)ccc23)CC1,-13.8
4,O=C(CCn1cc(Cl)cn1)Nc1ccc2c(c1)OCCO2,-8.19
5,COc1ncccc1CNCc1c(C(C)C)nn(C)c1N(C)C,-1.75
6,C=C(C)CN1CCC(NC(=O)Nc2ccc(F)c(C(=O)NC)c2)CC1,21.9
7,NCC1CCN(c2cnn(CCCn3cccn3)c(=O)c2)CC1,-8.18
8,Cc1cccc(-c2c[nH]c(C3CCCN3C(=O)c3cc(C)n[nH]3)n2)c1 (stereo unspecified),-9.63
9,Cc1ncc(C(=O)N2C[C@H]3CC[C@@H]2CN(S(=O)(=O)N(C)C)C3)c(C)n1,-11.5
10,COCC1CN(Cc2ccsc2)Cc2cnn(C)c21 (stereo unspecified),-2.85
11,COc1ccc(C2CCCCCN2S(N)(=O)=O)cc1 (stereo unspecified),23.5
12,CC(NC(=O)c1ccoc1)C(=O)N(C)Cc1ccc(O)cc1 (stereo unspecified),3.58
13,CC(CNS(C)(=O)=O)c1ccc(F)c(F)c1 (stereo unspecified),-1.08
14,CCc1nnc(NC(=O)c2ccc(C3CCCN3CC(C)C)s2)s1 (stereo unspecified),-2.96
15,COc1ccc2nnc(CCC(=O)Nc3nc4c(s3)CCC4)n2n1,-25.1
16,O=C1COC2(CCN(CC3CC3)CC2)CN1c1cncnc1,-13.3
17,Cc1nc(C)c(C(=O)NCCNc2ncccn2)s1,-5.75
18,COc1cc(N2CCC3(C2)CN(c2cccnc2)C(=O)CN3C)ncn1 (stereo unspecified),-4.78

# — ChEMBL document CHEMBL3507680, “University of Dundee, Gates Library screen for HepG2 cell viability”
